Read-outs that look alike come from different tables or passages of the source.
What was measured:
NCI 60 cell line panel = assay: NCI 60 cell line panel, allocation of cell lines by growth inhibition at 10 µM; assay type: cell-based, human
Text: (§1) Details of the NCI 60 One Dose Screen are well known and available online.

K-562 = assay: NCI 60 cell line panel: K-562; assay type: cell-based, human; settings: Leukemia, TP53 null/mutant
Text: as §1

HL-60 = assay: NCI 60 cell line panel: HL-60; assay type: cell-based, human; settings: Leukemia, TP53 null/mutant
Text: as §1

DU-145 = assay: NCI 60 cell line panel: DU-145; assay type: cell-based, human; settings: Prostate cancer, TP53 null/mutant
Text: as §1

in vivo = settings: nude, mouse, iv
Experimental: Three mice were placed in a dose group on the first day of treatment (Day 1). […] Animals were observed daily for mortality and moribundity. Body weights were measured daily starting on day 1.

RXF 393 = assay: NCI 60 cell line panel: RXF 393; assay type: cell-based, human; settings: Renal cancer, TP53 null/mutant
Text: as §1

MALME-3M = assay: NCI 60 cell line panel: MALME-3M; assay type: cell-based, human; settings: Melanoma, TP53 wild type
Text: as §1

HOP-92 = assay: NCI 60 cell line panel: HOP-92; assay type: cell-based, human; settings: NSCL, TP53 null/mutant
Text: as §1

RPMI-8226 = assay: NCI 60 cell line panel: RPMI-8226; assay type: cell-based, human; settings: Leukemia, TP53 null/mutant
Text: as §1

OVCAR-3 = assay: NCI 60 cell line panel: OVCAR-3; assay type: cell-based, human; settings: Ovarian cancer, TP53 null/mutant
Text: as §1

EKVX = assay: NCI 60 cell line panel: EKVX; assay type: cell-based, human; settings: NSCL, TP53 null/mutant
Text: as §1

[1] = Hydrolysis of the 5-azacytosine base; assay type: physicochemical; settings: data not shown
KM12 = assay: NCI 60 cell line panel: KM12; assay type: cell-based, human; settings: Colon cancer, TP53 null/mutant
Text: as §1

NCI-H226 = assay: NCI 60 cell line panel: NCI-H226; assay type: cell-based, human; settings: NSCL, TP53 null/mutant
Text: as §1

BT-549 = assay: NCI 60 cell line panel: BT-549; assay type: cell-based, human; settings: Breast cancer, TP53 null/mutant
Text: as §1

[2] = Pharmacokinetic study, IV in mice; assay type: in vivo; settings: 10 mg/kg; for half-life: iv
Experimental: Blood aliquots (300–400 µL) were collected via cardiac puncture from anesthetized mice in anticoagulant coated tubes, then kept on ice and centrifuged at 2500× g for 15 min at 4 °C. The plasma was harvested and kept frozen at −80 °C. Plasma samples were processed using acetonitrile precipitation and analyzed by HPLC-MS/MS. A plasma calibration curve was generated and a reportable linear range determined, along with the lower limit of quantitation.

MCF7 = assay: NCI 60 cell line panel: MCF7; assay type: cell-based, human; settings: Breast cancer, TP53 wild type
Text: as §1

HCT-116 = assay: NCI 60 cell line panel: HCT-116; assay type: cell-based, human; settings: Colon cancer, TP53 wild type
Text: as §1

SNB-19 = assay: NCI 60 cell line panel: SNB-19; assay type: cell-based, human; settings: CNS cancer, TP53 null/mutant
Text: as §1

total DNMT = assay: Total DNMT inhibition, colorimetric assay in HCT-116 cells; assay type: cell-based, human; settings: 10 µM, 24 h
Experimental: Total DNMT activity was measured in the colon cancer cell line HCT-116. The assay was performed using the EpiQuick^TM DNA Methyltransferase Activity/Inhibition Assay Kit (Epigentek, Brooklyn, NY, USA). […] Assays were performed three times in triplicate.

[3] = 55 cell lines tested for both compounds

## Nc1ncn([C@@H]2O[C@H](CO)[C@@H](O)C2(F)F)c(=O)n1 [NUC013, 5-aza-2′,2′-difluroro deoxycytidine]
NCI 60 cell line panel; [3]
  Number of cell lines with growth inhibition at 10 µM >50%: 24
  Number of cell lines with growth inhibition at 10 µM ≤50%: 31
NCI 60 cell line panel; TP53 (Null/Mutant) cell lines
  Number of cell lines with growth inhibition at 10 µM >50%: 13
  Number of cell lines with growth inhibition at 10 µM ≤50%: 27
NCI 60 cell line panel; TP53 (WT) cell lines
  Number of cell lines with growth inhibition at 10 µM >50%: 11
  Number of cell lines with growth inhibition at 10 µM ≤50%: 4
K-562
  Growth (%) at 10 µM: 65.66%
HL-60
  Growth (%) at 10 µM: 25.23%
DU-145
  Growth (%) at 10 µM: 43.48%
In vivo
  MTD at 3 weeks: > 120 mg/kg
RXF 393
  Growth (%) at 10 µM: 44.97%
MALME-3M
  Growth (%) at 10 µM: 67.90%
HOP-92
  Growth (%) at 10 µM: 34.34%
RPMI-8226
  Growth (%) at 10 µM: 39.24%
OVCAR-3
  Growth (%) at 10 µM: 70.56%
EKVX
  Growth (%) at 10 µM: 86.06%
[1]
  hydrolysis at the 6-position of the cytosine ring: susceptible to hydrolysis
KM12
  Growth (%) at 10 µM: 61.18%
NCI-H226
  Growth (%) at 10 µM: 52.34%
BT-549
  Growth (%) at 10 µM: 53.63%
[2]; mice, IV
  identification in plasma at the 6 and 24 h timepoints: could not be identified
[2]; mouse, plasma, mice, intravenous injection, read-out: half-life
  half-life: 20.1 min
[2]; mouse, plasma, mouse, IV, plasma, non-compartmental, read-out: t1/2 (converted)
  half-life: 20.1 min
[2]; mouse, IV, plasma
  AUC Extr: 0.04%
  AUC(0-inf): 11100 ng·h/mL
  AUC(0-t): 11100 ng·h/mL
  C0: 36900 ng/mL
  Last time point for AUClast: 4 h
  MRT: 17.5 min
[2]; mouse, IV, plasma, read-out: Vss
  Vd: 0.26 L/kg
MCF7
  Growth (%) at 10 µM: 20.74%
HCT-116
  Growth (%) at 10 µM: 29.84%
SNB-19
  Growth (%) at 10 µM: 58.88%
Total DNMT
  inhibition of total DNMT: 48.5%

Source: article PMC5620609 (Pharmaceuticals, 2017)
